15 compounds from patent publication US20100184815A1 (priority 2008, published 2010) can be followed below.

Each structure is given as a SMILES string.

The nature of data set [1]: Metabolism studies using human liver microsomal preparations. The data set is classed as in vitro ADME. Conditions: for HLMs Predominant Enzyme: comparison of half life with and without NADPH: Esterase, CYP or Mixed; for half-life: pH 7.4, read-out: HLMs t1/2; for half-life / HLMs t1/2 (min): pooled human liver microsomes, with NADPH (CYP system active), 37° C. The method, then:
Compounds were incubated in pooled human liver microsomes (HLMs) in the presence or absence of an NADPH-generating system. NADPH is required for the activity of cytochrome P450 (CYP) and other oxidative enzymes present in HLMs, but not for esterase activity. An additional incubation was carried out in the absence of HLM to assess compound stability. The disappearance of parent and the appearance of the corresponding acid metabolite were monitored over the time course of the incubations using LC-MS/MS.
A stock solution (20 mM) of each proprietary compound in DMSO was prepared and store at −20° C. until needed. A working stock solution (0.2 mM) was prepared for each proprietary compound by adding an aliquot of the stock solution (10 μL) to acetonitrile (990 μL).
An aliquot of the HLM solution was removed from the −80° C. freezer and placed on ice. Tris Buffer (50 mM, pH 7.4) containing MgCl2 (hexahydrate, 5 mM) was pre-incubated in a 37° C. water bath. A set of Eppendorf microfuge tubes (1.5 mL) was appropriately labeled. To each tube was added Tris buffer with or without the NADPH generating system. An aliquot of pooled HLMs was added to all the incubations except those that were the buffer control.
Tubes were preincubated for 5 min in a shaking incubator bath (37° C., 900 rpm) and the reaction was initiated by adding an aliquot of the proprietary working solution (5 μL). The additions were timed carefully in order to coordinate the sample collections below. A small aliquot (50 μL) was removed at […] and delivered to the respective tubes containing dextrorphan (100 μL of 0.5 μg/mL solution) in dissolved in methanol or acetonitrile. The samples were centrifuged at 14000 g for 15 minutes at 4° C. The supernatant was transferred to clean labeled HPLC injection vials and stored at −80° C. until analyzed. An aliquot of the supernatant […] was added to water (75 μL), mixed and injected onto the LC-MS/MS system for analysis.
“HLM t1/2” represents the observed half life of the compound under conditions that included NADPH, i.e., the CYP system was active. Comparison to the half life of the test article under (−)NADPH conditions, the enzyme predominant ly responsible for the metabolism of the test article. […] Where roughly equal metabolism is seen by each enzyme system, “mixed” is noted in the “Predominant enzyme” column.
(In general: Liver microsomes are vesicles of endoplasmic reticulum, rich in cytochrome P450 enzymes.)

The target of a further data set is T1, Gal-4 hPPARγ (Homo sapiens, UniProt P37231).
T1 construct: Plasmids pGal4-hPPARα, pGal4-hPPARγ, pGal4-hPPARδ and pG5-TK-pGL3 were constructed as previously described by Staels, Bart, et al., Nature 1998 Jun; 25
T1 sequence (P37231 238-505 limits assumed): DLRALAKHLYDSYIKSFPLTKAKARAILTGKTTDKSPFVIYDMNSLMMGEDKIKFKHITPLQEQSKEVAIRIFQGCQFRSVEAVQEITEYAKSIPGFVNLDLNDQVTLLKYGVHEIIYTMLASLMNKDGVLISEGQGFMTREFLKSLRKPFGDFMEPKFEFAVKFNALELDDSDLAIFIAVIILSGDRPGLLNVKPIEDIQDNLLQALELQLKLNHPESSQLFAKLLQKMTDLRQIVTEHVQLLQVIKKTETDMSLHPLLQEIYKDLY
Put plainly: Gal4-hPPARγ transient transfection reporter assay in Cos cells. In kind it is cell-based. Conditions: luciferase reporter, 24 hours with compound, scale 1-5, read-out: Gal-4 hPPAR γ EC50 (scaled number). In short, it runs like this: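 Cos cells transiently co-transfected with Gal4-hPPAR expression plasmid, pG5-TK-pGL3 luciferase reporter and β-galactosidase control, then treated 24 h with increasing compound concentrations in DMEM containing 0.2% FCS. Luciferase normalised to β-galactosidase; EC50 from curve fit, at least three experiments.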

The EC50 is the concentration needed to bring the measured effect to its halfway point. With `CC(C)(Sc1ccc(C(=O)OCCc2cn(Cc3ccc(C(F)(F)F)cc3)nn2)cc1)C(=O)O` [Compound 91, 2-methyl-2-(4-((2-(1-(4-(trifluoromethyl)benzyl)-1H-1,2,3-triazol-4-yl)ethoxy)carbonyl)phenylthio)propanoic acid], in data set [1], the “HLMs Predominant Enzyme” value is listed as “Mixed” and the half-life came to 0.917 h. The EC50 at Gal-4 hPPARγ was greater than 1000 nM.

For the compound `Cc1ccc(Cn2cc(COC(=O)c3ccc(SC(C)(C)C(=O)O)cc3)nn2)cc1` [Compound 60, 2-methyl-2-(4-(((1-(4-methylbenzyl)-1H-1,2,3-triazol-4-yl)methoxy)carbonyl)phenylthio)propanoic acid], in data set [1], the “HLMs Predominant Enzyme” value was “Esterase” and the half-life came out at 1.5 h. Besides, the EC50 at Gal-4 hPPARγ is greater than 1000 nM.

Regarding `CCCc1nn(Cc2ccc(C(F)(F)F)cc2)cc1COC(=O)c1ccc(SC(C)(C)C(=O)O)cc1` [Compound 12, 2-methyl-2-(4-(((3-propyl-1-(4-(trifluoromethyl)benzyl)-1H-pyrazol-4-yl)methoxy)carbonyl)phenylthio)propanoic acid], in data set [1], the “HLMs Predominant Enzyme” value was “Esterase” and the half-life was determined as 1 h. Moreover, the EC50 on Gal-4 hPPARγ was greater than 1000 nM.

With `CCCn1c(COC(=O)c2ccc(OC(C)(C)C(=O)O)cc2)nn(Cc2ccc(C(C)(C)C)cc2)c1=O` [Compound 150, 2-(4-(((1-(4-tert-butylbenzyl)-5-oxo-4-propyl-4,5-dihydro-1H-1,2,4-triazol-3-yl)methoxy)carbonyl)phenoxy)-2-methylpropanoic acid], in data set [1], the “HLMs t1/2 (min)” value is recorded as “Stable”. At Gal-4 hPPARγ, the concentration giving a half-maximal response (EC50) is greater than 1000 nM.

Turning to `CC(C)(Sc1ccc(C(=O)OCc2cn(Cc3ccc(C(C)(C)C)cc3)nn2)cc1)C(=O)O` [Compound 69, 2-(4-(((1-(4-tert-butylbenzyl)-1H-1,2,3-triazol-4-yl)methoxy)carbonyl)phenylthio)-2-methylpropanoic acid], in data set [1], the “HLMs Predominant Enzyme” value is “Esterase” and the half-life stood at 1 h. Also, the EC50 at Gal-4 hPPARγ is greater than 1000 nM.

For `CCCCCCCCn1c(COC(=O)c2ccc(OC(C)(C)C(=O)O)cc2)nn(Cc2ccc(C)cc2)c1=O` [Compound 152, 2-methyl-2-(4-(((1-(4-methylbenzyl)-4-octyl-5-oxo-4,5-dihydro-1H-1,2,4-triazol-3-yl)methoxy)carbonyl)phenoxy)propanoic acid], in data set [1], the “HLMs Predominant Enzyme” value is “Esterase” and the half-life was determined as 3 h. Further, the concentration giving a half-maximal response (EC50) at Gal-4 hPPARγ is greater than 1000 nM.

For `CCCCCCn1c(COC(=O)c2ccc(OC(C)(C)C(=O)O)cc2)nn(Cc2ccc(C)cc2)c1=O` [Compound 151, 2-(4-(((4-hexyl-1-(4-methylbenzyl)-5-oxo-4,5-dihydro-1H-1,2,4-triazol-3-yl)methoxy)carbonyl)phenoxy)-2-methylpropanoic acid], in data set [1], the “HLMs Predominant Enzyme” value is “Stable” and the “HLMs t1/2 (min)” value is listed as “Stable”. The EC50 on Gal-4 hPPARγ was greater than 1000 nM.

As for `Cc1ccc(Cn2cc(COC(=O)c3ccc(SC(C)(C)C(=O)O)cc3)cn2)cc1` [Compound 3, 2-methyl-2-(4-(((1-(4-methylbenzyl)-1H-pyrazol-4-yl)methoxy)carbonyl)phenylthio)propanoic acid], the “HLMs t1/2 (min)” value in data set [1] is “Stable”. In addition, the EC50 on Gal-4 hPPARγ is greater than 1000 nM.

For `COC(c1ccc(Cn2cc(COC(=O)c3ccc(SC(C)(C)C(=O)O)cc3)nn2)cc1)(C(F)(F)F)C(F)(F)F` [Compound 75, 2-(4-(((1-(4-(1,1,1,3,3,3-hexafluoro-2-methoxypropan-2-yl)benzyl)-1H-1,2,3-triazol-4-yl)methoxy)carbonyl)phenylthio)-2-methylpropanoic acid], in data set [1], the “HLMs Predominant Enzyme” value is “Esterase” and the half-life is 0.417 h. Also, the EC50 at Gal-4 hPPARγ is greater than 1000 nM.

Consider `CCCCCCCn1c(COC(=O)c2ccc(OC(C)(C)C(=O)O)cc2)nn(Cc2ccc(C)cc2)c1=O` [Compound 192, 2-(4-(((4-heptyl-1-(4-methylbenzyl)-5-oxo-4,5-dihydro-1H-1,2,4-triazol-3-yl)methoxy)carbonyl)phenoxy)-2-methylpropanoic acid], for which, in data set [1], the “HLMs Predominant Enzyme” value is on record as “Mixed” and the half-life was 0.55 h. In addition, on Gal-4 hPPARγ, the EC50 is greater than 1000 nM.

Take `CC(C)(Sc1ccc(C(=O)OCc2cn(Cc3ccc(C(F)(F)F)cc3)nn2)cc1)C(=O)O` [Compound 67, 2-methyl-2-(4-(((1-(4-(trifluoromethyl)benzyl)-1H-1,2,3-triazol-4-yl)methoxy)carbonyl)phenylthio)propanoic acid]: the “HLMs t1/2 (min)” value in data set [1] was “Stable”. Further, the EC50 on Gal-4 hPPARγ is greater than 1000 nM.

`CCCn1c(COC(=O)c2ccc(SC(C)(C)C(=O)O)cc2)nn(Cc2ccc(C(C)(C)C)cc2)c1=O` [Compound 159, 2-(4-(((1-(4-tert-butylbenzyl)-5-oxo-4-propyl-4,5-dihydro-1H-1,2,4-triazol-3-yl)methoxy)carbonyl)phenylthio)-2-methylpropanoic acid]: the “HLMs t1/2 (min)” value in data set [1] is reported as “Stable”. Further, the EC50 at Gal-4 hPPARγ is greater than 1000 nM.

`CCCCCCn1c(COC(=O)c2ccc(OC(C)(C)C(=O)O)cc2)nn(Cc2ccc(C(C)(C)C)cc2)c1=O` [Compound 188, 2-(4-(((1-(4-tert-butylbenzyl)-4-hexyl-5-oxo-4,5-dihydro-1H-1,2,4-triazol-3-yl)methoxy)carbonyl)phenoxy)-2-methylpropanoic acid]: in data set [1], the “HLMs Predominant Enzyme” value is “CYP” and the half-life was greater than 1.5 h. Moreover, the EC50 on Gal-4 hPPARγ is greater than 1000 nM.

On to `Cc1ccc(Cn2cc([C@@H](C)OC(=O)c3ccc(SC(C)(C)C(=O)O)cc3)nn2)cc1` [Compound 87, (R)-2-methyl-2-(4-((1-(1-(4-methylbenzyl)-1H-1,2,3-triazol-4-yl)ethoxy)carbonyl)phenylthio)propanoic acid], for which, in data set [1], the “HLMs Predominant Enzyme” value is reported as “Esterase” and the half-life was 2.13 h. Also, at Gal-4 hPPARγ, the EC50 was greater than 1000 nM.

With `CCCCCCCn1c(COC(=O)c2ccc(OC(C)(C)C(=O)O)cc2)nn(Cc2ccc(C(C)(C)C)cc2)c1=O` [Compound 190, 2-(4-(((1-(4-tert-butylbenzyl)-4-heptyl-5-oxo-4,5-dihydro-1H-1,2,4-triazol-3-yl)methoxy)carbonyl)phenoxy)-2-methylpropanoic acid], in data set [1], the “HLMs Predominant Enzyme” value is “CYP” and the half-life was 0.6 h. Besides, the EC50 on Gal-4 hPPARγ was greater than 1000 nM.
